Molecules are shown by their SMILES.

As usually defined, the inhibition is the change of the read-out against control, counted positive when it falls.

For the assay, the target named is T1, DPAP1 (Plasmodium falciparum, UniProt Q8IIJ9).
T1 sequence (Q8IIJ9 370-599 limits assumed): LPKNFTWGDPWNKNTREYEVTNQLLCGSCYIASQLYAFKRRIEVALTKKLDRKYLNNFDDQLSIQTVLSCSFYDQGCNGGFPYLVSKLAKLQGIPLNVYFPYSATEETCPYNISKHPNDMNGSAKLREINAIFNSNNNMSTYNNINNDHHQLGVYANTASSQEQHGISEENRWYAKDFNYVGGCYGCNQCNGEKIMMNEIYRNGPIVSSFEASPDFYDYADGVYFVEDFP
T1 sequence (Q8IIJ9 28-209 limits assumed): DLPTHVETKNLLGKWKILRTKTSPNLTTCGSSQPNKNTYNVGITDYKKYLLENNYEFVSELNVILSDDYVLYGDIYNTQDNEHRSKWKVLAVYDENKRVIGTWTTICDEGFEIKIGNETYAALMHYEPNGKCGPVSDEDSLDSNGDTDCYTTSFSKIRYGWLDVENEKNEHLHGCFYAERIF
T1 sequence (Q8IIJ9 600-700 limits assumed): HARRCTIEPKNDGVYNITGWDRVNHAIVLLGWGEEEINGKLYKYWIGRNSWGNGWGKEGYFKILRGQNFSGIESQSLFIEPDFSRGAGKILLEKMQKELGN
The assay is described as follows: biochemical. To be noted: for DPAP Primary hit (Hit = 1): 10 μM HTS, 0 not defined; for inhibition at 10 µM: 10 μM compound, parasite lysates, (PR)2Rho, 30 min end-point, read-out: DPAP1 % Inhibition @ 10 uM. The format is biochemical.

In the case of `CCOc1cc(C2CC(=O)N3CN(Cc4ccccc4)CSC3=C2C#N)ccc1O` (centres unmarked) [SMDC170173, CCOc1cc(ccc1O)C2CC(=O)N3CN(Cc4ccccc4)CSC3=C2C#N], the “DPAP Primary hit (Hit = 1)” value stood at 0 and the inhibition at 10 µM is 20%.
The like results for `COc1cc(C2CC(=O)N3CN(C)CSC3=C2C#N)cc(OC)c1OC` (centres unmarked) [SMDC170174, COc1cc(cc(OC)c1OC)C2CC(=O)N3CN(C)CSC3=C2C#N] were, in that order, 0 and 4%.
For `COc1ccc2ccccc2c1C1CC(=O)N2CN(C)CSC2=C1C#N` (centres unmarked) [SMDC170175, COc1ccc2ccccc2c1C3CC(=O)N4CN(C)CSC4=C3C#N], the “DPAP Primary hit (Hit = 1)” value came out at 0 and the inhibition at 10 µM came out at 37%.
As for `N#CC1=C2SCN(Cc3ccco3)CN2C(=O)CC1c1cccc2ccccc12` (centres unmarked) [SMDC170176, O=C1CC(C(=C2SCN(Cc3occc3)CN12)C#N)c4cccc5ccccc45], the “DPAP Primary hit (Hit = 1)” value worked out at 0 and the inhibition at 10 µM came to 46%.
The like results for `Cc1ccc(C2CC(=O)N3CN(CCC(C)C)CSC3=C2C#N)cc1` (centres unmarked) [SMDC178751, CC(C)CCN1CSC2=C(C#N)C(CC(=O)N2C1)c3ccc(C)cc3] were, in that order, 0 and 44%.
The corresponding values for `COc1ccc(C2CC(=O)N3CN(CCCc4ccccc4)CSC3=C2C#N)cc1OC` (centres unmarked) [SMDC178760, COc1ccc(cc1OC)C2CC(=O)N3CN(CCCc4ccccc4)CSC3=C2C#N] are 0 and 31%.
`Cc1ccc(C2CC(=O)N3CN(CCc4ccccc4)CSC3=C2C#N)cc1` (centres unmarked) [SMDC178761, Cc1ccc(cc1)C2CC(=O)N3CN(CCc4ccccc4)CSC3=C2C#N]: the “DPAP Primary hit (Hit = 1)” value worked out at 1 and the inhibition at 10 µM is 64%.
The corresponding values for `COc1ccc(C2CC(=O)N3CN(C(C)c4ccccc4)CSC3=C2C#N)cc1OC` (centres unmarked) [SMDC178770, COc1ccc(cc1OC)C2CC(=O)N3CN(CSC3=C2C#N)C(C)c4ccccc4] are 0 and 28%.
The like results for `N#CC1=C2SCN(C3CCCC3)CN2C(=O)CC1c1ccc(Cl)cc1` (centres unmarked) [SMDC178771, Clc1ccc(cc1)C2CC(=O)N3CN(CSC3=C2C#N)C4CCCC4] were, in that order, 1 and 55%.
Turning to `COc1ccc(C2CC(=O)N3CN(CCC(C)C)CSC3=C2C#N)cc1OC` (centres unmarked) [SMDC178780, COc1ccc(cc1OC)C2CC(=O)N3CN(CCC(C)C)CSC3=C2C#N], the “DPAP Primary hit (Hit = 1)” value was determined as 0 and the inhibition at 10 µM is 47%.
The like results for `CC(c1ccccc1)N1CSC2=C(C#N)C(c3ccc(Cl)cc3)CC(=O)N2C1` (centres unmarked) [SMDC178781, CC(N1CSC2=C(C#N)C(CC(=O)N2C1)c3ccc(Cl)cc3)c4ccccc4] were, in that order, 1 and 73%.
`CC(C)CCN1CSC2=C(C#N)C(c3ccc(Cl)cc3)CC(=O)N2C1` (centres unmarked) [SMDC178791, CC(C)CCN1CSC2=C(C#N)C(CC(=O)N2C1)c3ccc(Cl)cc3]: the “DPAP Primary hit (Hit = 1)” value was determined as 1 and the inhibition at 10 µM is 55%.
The corresponding values for `Cc1ccc(C2CC(=O)N3CN(Cc4cccnc4)CSC3=C2C#N)cc1` (centres unmarked) [SMDC178800, Cc1ccc(cc1)C2CC(=O)N3CN(Cc4cccnc4)CSC3=C2C#N] are 0 and 44%.
With `COc1ccc(CN2CSC3=C(C#N)C(c4ccc(C)cc4)CC(=O)N3C2)cc1` (centres unmarked) [SMDC178810, COc1ccc(CN2CSC3=C(C#N)C(CC(=O)N3C2)c4ccc(C)cc4)cc1], the “DPAP Primary hit (Hit = 1)” value is given as 0 and the inhibition at 10 µM was 44%.
The corresponding values for `COc1ccc(C2CC(=O)N3CN(Cc4cccnc4)CSC3=C2C#N)cc1` (centres unmarked) [SMDC178811, COc1ccc(cc1)C2CC(=O)N3CN(Cc4cccnc4)CSC3=C2C#N] are 0 and 46%.
The corresponding values for `Cc1ccc(C2CC(=O)N3CN(C(C)c4ccccc4)CSC3=C2C#N)cc1` (centres unmarked) [SMDC178820, CC(N1CSC2=C(C#N)C(CC(=O)N2C1)c3ccc(C)cc3)c4ccccc4] are 0 and 11%.
The corresponding values for `CCOc1ccc(C2CC(=O)N3CN(Cc4cccnc4)CSC3=C2C#N)cc1` (centres unmarked) [SMDC178821, CCOc1ccc(cc1)C2CC(=O)N3CN(Cc4cccnc4)CSC3=C2C#N] are 1 and 56%.
For `COc1ccc(CN2CSC3=C(C#N)C(c4cccs4)CC(=O)N3C2)cc1` (centres unmarked) [SMDC178823, COc1ccc(CN2CSC3=C(C#N)C(CC(=O)N3C2)c4cccs4)cc1], the “DPAP Primary hit (Hit = 1)” value was found to be 1 and the inhibition at 10 µM amounted to 51%.
The corresponding values for `CCOc1ccc(C2CC(=O)N3CN(CCO)CSC3=C2C#N)cc1` (centres unmarked) [SMDC178832, CCOc1ccc(cc1)C2CC(=O)N3CN(CCO)CSC3=C2C#N] are 1 and 61%.
Turning to `CC(c1ccccc1)N1CSC2=C(C#N)C(c3cccs3)CC(=O)N2C1` (centres unmarked) [SMDC178833, CC(N1CSC2=C(C#N)C(CC(=O)N2C1)c3cccs3)c4ccccc4], the “DPAP Primary hit (Hit = 1)” value is recorded as 1 and the inhibition at 10 µM was 68%.
The corresponding values for `CCOc1ccc(C2CC(=O)N3CN(CCc4ccccc4)CSC3=C2C#N)cc1` (centres unmarked) [SMDC178842, CCOc1ccc(cc1)C2CC(=O)N3CN(CCc4ccccc4)CSC3=C2C#N] are 1 and 71%.
The like results for `N#CC1=C2SCN(CCc3ccccc3)CN2C(=O)CC1c1cccs1` (centres unmarked) [SMDC178843, O=C1CC(C(=C2SCN(CCc3ccccc3)CN12)C#N)c4cccs4] were, in that order, 0 and 43%.
`N#CC1=C2SCN(Cc3cccnc3)CN2C(=O)CC1c1ccc(F)cc1` (centres unmarked) [SMDC178852, Fc1ccc(cc1)C2CC(=O)N3CN(Cc4cccnc4)CSC3=C2C#N]: the “DPAP Primary hit (Hit = 1)” value came to 1 and the inhibition at 10 µM stood at 55%.
The like results for `N#CC1=C2SCN(CCN3CCOCC3)CN2C(=O)CC1c1ccc(F)cc1` (centres unmarked) [SMDC178862, Fc1ccc(cc1)C2CC(=O)N3CN(CCN4CCOCC4)CSC3=C2C#N] were, in that order, 1 and 50%.
The corresponding values for `N#CC1=C2SCN(CCc3ccccc3)CN2C(=O)CC1c1ccc(F)cc1` (centres unmarked) [SMDC178872, Fc1ccc(cc1)C2CC(=O)N3CN(CCc4ccccc4)CSC3=C2C#N] are 1 and 52%.
The corresponding values for `N#CC1=C2SCN(C3CCCC3)CN2C(=O)CC1c1cccs1` (centres unmarked) [SMDC178882, O=C1CC(C(=C2SCN(CN12)C3CCCC3)C#N)c4cccs4] are 0 and 48%.
Turning to `N#CC1=C2SCN(Cc3ccco3)CN2C(=O)CC1c1cccs1` (centres unmarked) [SMDC178892, O=C1CC(C(=C2SCN(Cc3occc3)CN12)C#N)c4cccs4], the “DPAP Primary hit (Hit = 1)” value is reported as 0 and the inhibition at 10 µM is 48%.
Consider `CC(C)C[C@H](NC(=O)N1CCOCC1)C(=O)N[C@H](/C=C/S(=O)(=O)c1ccccc1)CCc1ccccc1` [SMDC279744, CC(C)C[C@H](NC(=O)N1CCOCC1)C(=O)N[C@@H](CCc2ccccc2)\C=C\S(=O)(=O)c3ccccc3], for which the inhibition at 10 µM is 6.4%.
Same read-out and setting: in the case of `CC[C@H](C)[C@H](NC(=O)OC(C)(C)C)C(=O)N[C@@H](CCc1ccccc1)C(=O)CCS(=O)(=O)c1ccccc1` [SMDC279745, CC[C@H](C)[C@H](NC(=O)OC(C)(C)C)C(=O)N[C@@H](CCc1ccccc1)C(=O)CCS(=O)(=O)c2ccccc2] it was 3.66%.
